Test results as given in patent US20250177386A1, “METHOD OF TREATMENT OF DEPRESSED PATIENTS WITH POOR COGNITION AND SELECTION OF OTHER PATIENTS BENEFITING FROM A BENZYLPIPERAZINE-AMINOPYRIDINE AGENT” (Alto Neuroscience, Inc., priority 2021, published 2025).

Tests used:
[1] = tested on: patients having major depressive disorder; assay: Phase 2 clinical trial with NSI-189 (220 patients, SPCD design), retrospective analysis by baseline cognition; type: in vivo, human; conditions: for number needed to treat to achieve one more remission / odds ratio for drug response: 80 mg vs placebo; for odds ratio for drug response: remission at 6 weeks
Description: A subsequent Phase 2 study was then performed on 220 patients with major depression (11). In that study, patients were randomized to receive a total daily dose of 40 mg or 80 mg of NSI-189 or placebo in stage 1 of the clinical trial design. […] Treatment in either stage was given for six weeks. This design is termed a Sequential Parallel Clinical Design (SPCD), and is analyzed statistically by combining results in a pre-defined manner for outcomes differences between relevant groups (e.g., drug vs. placebo) in each of the stages individually. There are two depression outcome measures accepted by the United States Food and Drug Administration (FDA) for the evaluation of adults. See the June 2018 FDA draft guidance entitled “Major Depressive Disorder: Developing Drugs for Treatment.” These are the Montgomery-Asberg Depression Rating Scale (MADRS), which was the primary outcome in this study, as well as the Hamilton Depression Rating Scale (HDRS) which was a key secondary outcome measure. […] It was reported that any benefits of NSI-189 on depression and cognition are independent effects (27).
A retrospective analysis of the 220-patient phase 2 study of NSI-189 discussed above was performed. In the study, patients having major depressive disorder were randomized to receive a total daily dose of 40 mg or 80 mg of NSI-189 or placebo in stage 1 (first 6 weeks) of the clinical trial design. […] The remaining of patients continued on their treatment for stage 2 of the trial. Treatment in either stage was given for six weeks. Patients were eligible for study participation if they were between the ages of 18-60 years, with current major depressive disorder of at least 8 weeks duration according to the DSM-5, as diagnosed by the Structured Clinical Interview for the DSM-5 clinical trial version (SCID-5-CT) during the screen and remote assessment visits, and if they were scored at least 20 at screen, remote assessment, and baseline visits on the Montgomery-Asberg Depression Rating Scale (MADRS). The phase 2 study collected cognitive task performance data prior to treatment, and then again after both stage 1 and stage 2 of the treatment protocol. The purpose of doing so was to determine whether treatment with this compound results in improvement in cognitive functioning, as measured by a variety of behavioral measures.
Prior to the inventor's retrospective analysis, there was no consideration as to using behavioral measures to predict treatment outcome nor was there any analysis conducted to this effect. There was no consideration of using cognitive performance as a predictor but only as an outcome measure. […] The tasks in this battery included a simple reaction time (RT) task, a choice RT task, a one-back working memory task, and a visual learning task. Moreover, given the conversion to z-score, a composite cognitive task performance score could be computed by averaging the z-scores for each of the four tasks in the battery. Analyses focused on the MADRS primary outcome of the study, with supporting evidence subsequently produced by examining the HDRS key secondary outcome, as well as the CGI. Statistical analyses focused first on the complete trial (incorporating both stage 1 and stage 2 outcomes), using the SPCD analytic approach reported in the original study and thus aligned could be compared with the original statistical analysis plan. We used linear mixed models to predict change from baseline (at 2, 4, and 6 weeks) in clinical scores and included covariates for time, time x group, time x baseline MADRS and baseline MADRS. These covariates likewise were used in the original study, and thus results here can be compared with the all-comer results reported previously. Statistical significance was thus assessed on the primary outcome (MADRS change from baseline at 6 weeks across the SPCD design) and similar secondary outcomes (HDRS and CGI change from baseline at 6 weeks). […]

[2] = tested on: patients having major depressive disorder; conditions: cited from earlier work
[3] = tested on: patients with major depression; conditions: total daily doses of 40 mg, 80 mg or 120 mg; 18 patients on active dose (ref. 10); cited from earlier work

CC(C)CCNc1ncccc1C(=O)N1CCN(Cc2ccccc2)CC1 [NSI-189, (4-benzylpiperazin-1-yl)-[2-(3-methylbutylamino)pyridin-3-yl]methanone]
change in MADRS scores, either drug arm versus placebo ([1]; 40 mg or 80 mg/day, good cognition group (composite score above patient mean), p=0.25): no significant differences | change in MADRS scores, 40 mg group versus placebo ([1]; 40 mg/day, poor cognition group (cognitive composite score), p=0.39): not significant | durability of MADRS benefit, poor cognition compared to good cognition patients ([1]; 80 mg arm from stage 1, composite score, 12 weeks of treatment): stable and consistent throughout all 12 weeks of treatment | number needed to treat to achieve one more remission ([1]; all-comer sample, 6 weeks, stage 1): 19.6 | odds ratio for drug response ([1]; all-comer sample, stage 1): 1.3 | number needed to treat to achieve one more remission ([1]; poor cognition subpopulation, 6 weeks, stage 1): 3.2 | odds ratio for drug response ([1]; poor cognition subpopulation, stage 1): 4.7 | change in MADRS scores, 80 mg versus placebo ([1]; 80 mg/day, choice RT task, lenient cutoff z=+0.5, p=0.12): did not yield a significant effect | Cohen's d effect size per MADRS item, 80 mg versus placebo ([1]; 80 mg/day, cognitively impaired patients, six weeks, both stages, items 1, 7, 8, 9): notable effects | remission rate (score of 10 or less on the MADRS) ([1]; 80 mg/day, good cognition patients, 6 weeks, stage 1, chi-square p=0.014 vs poor cognition): 12% | MADRS depression score improvement, 80 mg over placebo ([1]; 80 mg/day, late-life depression (LLD) group, 50 years or older): greater with 80 mg over placebo | MADRS depression score improvement, 80 mg versus placebo ([1]; 80 mg/day, non-LLD group, younger than 50): indistinguishable between the two arms | symptom change on the HDRS, 80 mg relative to placebo ([1]; 80 mg/day, poor cognition based on choice RT task, p=0.008): robust and significant effect | change in MADRS scores, 80 mg versus placebo ([1]; 80 mg/day, poor cognition defined by choice RT task, SPCD p=0.005): robust and significant improvement over placebo | Clinical Global Impression (CGI) severity, 80 mg over placebo ([1]; 80 mg/day, poor cognition defined by choice RT, p=0.0002): robust and significant advantage | change in MADRS scores, 80 mg versus placebo ([1]; 80 mg/day, poor cognition defined by one-back working memory, SPCD p=0.08): trend-level significance | change in MADRS scores, 80 mg versus placebo ([1]; 80 mg/day, poor cognition defined by simple RT task, SPCD p=0.09): trend-level significance | change in MADRS scores, 80 mg arm versus placebo ([1]; 80 mg/day, poor cognition group (cognitive composite score below patient mean), SPCD analysis p=0.014, 6 weeks): robust and statistically significant effect | change in MADRS scores, 80 mg versus placebo ([1]; 80 mg/day, poor cognition on choice RT task, cutoff z=0, p=0.007): significant superiority over placebo | change in MADRS scores, 80 mg versus placebo ([1]; 80 mg/day, poor cognition on choice RT task, cutoff z=-0.5, p=0.009): significant superiority over placebo | remission rate (score of 10 or less on the MADRS) ([1]; 80 mg/day, poor cognition patients (composite score), 6 weeks, stage 1, chi-square p=0.017 vs placebo): 47% | Clinical Global Impression (CGI) severity, 80 mg versus placebo ([1]; 80 mg/day, poor cognition patients (composite score), p=0.002): significantly more effective than placebo | symptom change on the HDRS, 80 mg over placebo ([1]; 80 mg/day, poor cognition patients (composite score), p=0.038): significantly greater efficacy | benefit in terms of remission rate ([1]; good cognition group, 6 weeks, stage 1): No benefit | MADRS depression score, difference between treatment arms ([1]; patients with poor self-reported cognition (CPFQ score >25)): no difference is seen between treatment arms | Cohen's d effect sizes (MADRS, HDRS, CGI), 80 mg versus placebo ([1]; week 6, stage 1 and stage 2, poor cognition subpopulation relative to all-comer sample): effect sizes increase substantially | effects on several secondary measures compared to placebo ([2]; 40 mg dose, all-comers, not corrected for multiple comparisons): nominally significant effects | efficacy on any study measure ([2]; 80 mg daily dose, entire study population (ref. 11)): did not demonstrate efficacy | antidepressant efficacy on MADRS primary outcome and HDRS key secondary measure ([2]; original all-comer analysis, 40 mg or 80 mg/day, full SPCD analysis or each stage alone (ref. 11)): failed to demonstrate any evidence of antidepressant efficacy | potential antidepressant efficacy [3]: promising evidence
